Laboratory results: patent publication US20100273203A1 (priority 2009, published 2010)
Read-outs that look alike come from different tables or passages of the source.

How the values were obtained:
CYP3A4 [1] = target: T1, CYP3A4 (Homo sapiens, UniProt P08684); details: read-out: IC50 for CYP marker reaction; P450-Glo marker reaction
CYP2C9*1 [2] = target: T2, CYP2C9*1 (Homo sapiens, UniProt P11712); details: read-out: IC50 for CYP marker reaction; P450-Glo marker reaction
CYP2C9 = CYP2C9 (Homo sapiens, UniProt P11712); details: read-out: IC50 toward recombinant CYP2C9 activity; P450-Glo, 50 μM Luciferin H; racemic compounds
Experimental: Hydroxywarfarins were screened for inhibitory potential toward recombinant CYP2C9 using the Promega (Madison, Wis.) CY2C9 P450-Glo™ Assay using the manufacturer's protocol. These IC50 studies were analyzed on a PerkinElmer Victor^3V™ 1420 Multilabel Counter. Recombinant CYP2C9, 50 nM, was incubated with 50 μM Luciferin H, and six concentrations of each hydroxywarfarin from approximately 10 nM to 4 mM final concentration, as optimized for each compound. The appropriate volume of hydroxywarfarin stocks in 100% ethanol were added to each well prior to addition of the substrate and enzyme, and the ethanol was allowed to evaporate at room temperature to minimize solvent effects on CYP2C9 activity. A final DMSO concentration of 1% was present in the reactions due to the P450-Glo Luciferin H. The reaction was initiated upon addition of an NADPH regenerating solution (BD Biosciences) and quenched with a luciferase quench (Promega) at 30 min.

plasma proteins = details: cited from earlier work
CYP2C9*1 [3] = target: T2, CYP2C9*1; details: for Ki / Mechanism of inhibition: S-warfarin metabolism
Experimental: (§1) For each hydroxywarfarin, at least 4 independent experimental replicates were performed.
(§2) MS/MS experimental conditions was used as described previously (6).
(§3) The most probable inhibition mechanism for recombinant CYP2C9 and human liver microsome reactions was identified using DynaFit ver. 3.28 (Biokin, Ltd) (20). Data from each set of hydroxywarfarin experiments were fit to traditional reversible inhibition mechanisms (competitive, uncompetitive, noncompetitive, or mixed). The respective kinetic parameters (Ki and Ki′) were set as variables, while the kinetic parameters (Vmax and Km) were constants based on values obtained from uninhibited reactions. The most probable mechanism was then identified using the Akaike Information Criterion (AICc) for model discrimination (21).

[4] = target: CYP2C9 present in the human liver microsomes (Homo sapiens, UniProt P11712); details: for Ki / Mechanism of inhibition: S-warfarin metabolism
Experimental: as §1, §2, §3

CYP1A2 = target: T3, CYP1A2 (Homo sapiens, UniProt P05177); details: read-out: IC50 for CYP marker reaction; P450-Glo marker reaction
T3 sequence (P05177 1-516): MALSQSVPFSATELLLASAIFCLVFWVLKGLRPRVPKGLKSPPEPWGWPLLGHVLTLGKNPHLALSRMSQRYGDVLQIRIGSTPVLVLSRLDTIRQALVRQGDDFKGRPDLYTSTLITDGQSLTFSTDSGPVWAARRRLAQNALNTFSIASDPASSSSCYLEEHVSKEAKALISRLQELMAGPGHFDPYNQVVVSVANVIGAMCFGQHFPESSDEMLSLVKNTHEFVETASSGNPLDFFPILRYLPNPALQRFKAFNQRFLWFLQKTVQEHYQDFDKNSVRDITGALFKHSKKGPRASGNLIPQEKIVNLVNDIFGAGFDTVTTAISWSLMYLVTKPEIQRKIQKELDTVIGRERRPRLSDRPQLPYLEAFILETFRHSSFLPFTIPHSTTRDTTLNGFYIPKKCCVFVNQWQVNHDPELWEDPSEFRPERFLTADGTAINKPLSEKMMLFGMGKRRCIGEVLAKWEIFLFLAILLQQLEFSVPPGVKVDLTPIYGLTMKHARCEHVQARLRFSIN

[5] = LC-MS/MS urinary metabolic profile of patients receiving warfarin; details: for % R / % S (proportion in (S)-enantiomeric form) / % conjugated (proportion glucuronidated) / urinary concentration: urine; for urinary concentration: free and conjugated; for share of (S)-WAR P450 metabolites measured: three urine specimens
From the text: All chemicals used in this study were of at least reagent grade. Unless otherwise specified, all chemicals and reagents were purchased from either Sigma-Aldrich (St. Louis, Mo.) or Thermo Fisher Scientific (Waltham, Mass.). […] Ethyl alcohol (100%) was purchased from AAPER (Shelbyville, Ky.). Re-combinant CYP2C9*1, CYP3A4, CYP1A2, and CYP2C19 were expressed in baculovirus-infected insect cells and purchased from BD Biosciences (San Jose, Calif.). Commercially available urine specimens from three females (F84, F85, and F87) were provided by the Emergency Response and Air Toxicants Branch, Division of Laboratory Science National Center for Environmental Health Centers for Disease Control and Prevention (DeKalb County, Ga.). Patient studies were conducted under IRB-approved protocols, and all patients signed informed consent documentation.
This analytical phase was accomplished by reverse-phase HPLC using a 4.6 mm×150 mm C18 Zorbax Eclipse 5 μm XDB-C18 column provided by Agilent (Santa Clara, Calif.). The operating temperature was 40° C., and the sample injection volume was 5.0 μL. HPLC mobile phases consisted H2O (0.1% acetic acid v/v) (A) and methanol (0.1% acetic acid v/v) (B). The flow rate was 1 mL/min. […] The total run time per sample was 10 min. Specific MS/MS experimental conditions used in this study are noted in Table 1.
To determine the relative abundance of the (R)-and (S)-enantiomers of each metabolite, a 4.6 mm×25 cm Chirobiotic V5 μm column supplied by Supelco (Bellefonte, Pa.) was incorporated during the second analytical phase. Mobile phases consisted of H2O (0.1% acetic acid v/v) (A) and acetonitrile (0.1% acetic acid v/v) (B) with a flow rate of 800 μL/min. Enantiomeric separations were accomplished under isocratic conditions (80% A and 20% B). The sample injection volume was 15.0 μL. Enantiomeric MS/MS analyses were performed in negative ion mode by electrospray ionization (ESI) using a Turbo IonSpray source. A total run time of 20 min was required for adequate resolution. Specific MS/MS experimental conditions used in this study are noted in the Table 2.
Each response was normalized to that of the internal standard, 7-hydroxycoumarin (10 μM). […] Measurements of these three metabolites were calculated by taking the difference of the amount measured in the first analytical phase, which contained both (R)-and (S) isomers from the amount of the (S)-isomer measured in the second analytical phase (eq 3). Glucuronidated metabolites were measured by incubating 250 μL of urine with 2000 units of GUS in 100 mM sodium acetate buffer, pH 5.0. The final volume for each of these reactions was 1 mL. Control reactions omitting GUS were included with each sample set. Reactions were incubated overnight at 37° C., after which they were stored at −80° C. Immediately before analysis, both samples were diluted with an equal volume of ethanol containing 7-hydroxycoumarin (10 μM final concentration). The difference between GUS-treated samples and controls represented the amount of glucuronidated metabolites present.

UGT1A10 = UGT1A10 (Homo sapiens, UniProt Q9HAW8); details: glucuronidation; racemic OHWars
From the text: (§4) The characterization of hepatic and extrahepatic glucuronidation may be made based on glucuronidation studies with 100 commercially available HLM and 100 intestinal microsomal preparations available in our laboratory. […] Both racemic mixtures and separated R and S enantiomers may be assayed. […] Activities of extrahepatic (UGT1A8 and UGT1A10) and hepatic (UGT1A1, UGT1A3, and UGT1A9) isoforms may be compared to that of their respective microsomal preparations, and assign the contribution of specific UGTs to product formation by the human samples.

[6] = Estimated unbound levels in plasma of long-term warfarin therapy patients; details: estimated from literature data
UGT1A1 = UGT1A1 (Homo sapiens, UniProt P22309); details: glucuronidation; racemic OHWars
From the text: as §4

CYP3A4 [7] = target: T1, CYP3A4; test: Steady-state metabolism of R- and S-warfarin by recombinant CYP3A4
Experimental: (§5) Reactions were initiated upon addition of an NADPH regenerating system [2 μU μL-1 glucose 6-phosphate dehydrogenase, 10 mM glucose 6-phosphate, 2 mM MgCl2, 1 mM NADP^+]. […] The quenched reactions were centrifuged and the resulting supernatant containing substrate and products resolved and quantified by UPLC-MS/MS. Each experiment was performed in at least 4 independent experimental replicates.
(§6) The flow rate was constant at 250 μL/min. […] Electrospray conditions were as follows: spray voltage of 4500 V, sheath gas pressure 45, auxiliary gas pressure 20, and collision energy of 15-15 eV (compound specific).
(§7) Final metabolite concentrations were calculated from the ratio of metabolite area to internal standard area in the sample and compared to calibration curves as determined from the UPLC-MS/MS method. All compounds were quantified relative to authentic standards. The resulting kinetic data were analyzed with GraphPad Prism 5® software. Non-linear regression analysis was used to fit steady-state data to the Michaelis-Menten equation to determine the Vmax and Km parameters.

CYP3A7 = CYP3A7 (Homo sapiens, UniProt P24462); test: Steady-state metabolism of R- and S-warfarin by recombinant CYP3A7
Experimental: as §5, §6, §7

[8] = 7-hydroxywarfarin formation as marker
[9] = based on S-6-hydroxywarfarin formation
[10] = 10-hydroxywarfarin formation, 37° C, pH 7.4

Sequence of CYP3A7 (P24462 whole entry): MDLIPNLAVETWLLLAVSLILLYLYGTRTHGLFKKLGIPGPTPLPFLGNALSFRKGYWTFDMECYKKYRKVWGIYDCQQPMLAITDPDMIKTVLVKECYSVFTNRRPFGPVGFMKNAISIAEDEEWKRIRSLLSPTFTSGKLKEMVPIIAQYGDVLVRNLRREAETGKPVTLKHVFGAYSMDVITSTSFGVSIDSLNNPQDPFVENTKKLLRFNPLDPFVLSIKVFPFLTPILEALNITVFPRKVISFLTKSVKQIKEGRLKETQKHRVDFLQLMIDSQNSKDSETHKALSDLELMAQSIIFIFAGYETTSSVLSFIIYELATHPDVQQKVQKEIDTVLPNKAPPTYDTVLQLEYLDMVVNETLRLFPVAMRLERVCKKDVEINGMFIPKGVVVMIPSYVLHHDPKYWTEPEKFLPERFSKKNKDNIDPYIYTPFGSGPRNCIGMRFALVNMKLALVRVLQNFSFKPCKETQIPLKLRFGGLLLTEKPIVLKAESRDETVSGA
Sequence of UGT1A10 (Q9HAW8 26-530): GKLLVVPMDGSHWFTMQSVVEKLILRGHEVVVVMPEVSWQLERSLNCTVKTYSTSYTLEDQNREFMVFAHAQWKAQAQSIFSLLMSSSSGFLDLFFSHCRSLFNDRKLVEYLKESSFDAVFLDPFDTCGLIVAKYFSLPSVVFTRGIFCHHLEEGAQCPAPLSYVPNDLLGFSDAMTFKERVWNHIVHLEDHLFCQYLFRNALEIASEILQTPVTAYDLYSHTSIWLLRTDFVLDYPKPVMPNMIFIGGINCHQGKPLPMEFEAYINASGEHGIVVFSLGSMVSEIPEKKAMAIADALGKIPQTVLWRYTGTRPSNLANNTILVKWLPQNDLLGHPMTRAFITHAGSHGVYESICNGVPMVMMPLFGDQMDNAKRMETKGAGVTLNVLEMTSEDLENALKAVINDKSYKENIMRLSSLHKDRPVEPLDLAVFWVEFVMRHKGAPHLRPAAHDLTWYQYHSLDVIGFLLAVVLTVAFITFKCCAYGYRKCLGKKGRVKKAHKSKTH
Sequence of CYP2C9 (P11712 whole entry): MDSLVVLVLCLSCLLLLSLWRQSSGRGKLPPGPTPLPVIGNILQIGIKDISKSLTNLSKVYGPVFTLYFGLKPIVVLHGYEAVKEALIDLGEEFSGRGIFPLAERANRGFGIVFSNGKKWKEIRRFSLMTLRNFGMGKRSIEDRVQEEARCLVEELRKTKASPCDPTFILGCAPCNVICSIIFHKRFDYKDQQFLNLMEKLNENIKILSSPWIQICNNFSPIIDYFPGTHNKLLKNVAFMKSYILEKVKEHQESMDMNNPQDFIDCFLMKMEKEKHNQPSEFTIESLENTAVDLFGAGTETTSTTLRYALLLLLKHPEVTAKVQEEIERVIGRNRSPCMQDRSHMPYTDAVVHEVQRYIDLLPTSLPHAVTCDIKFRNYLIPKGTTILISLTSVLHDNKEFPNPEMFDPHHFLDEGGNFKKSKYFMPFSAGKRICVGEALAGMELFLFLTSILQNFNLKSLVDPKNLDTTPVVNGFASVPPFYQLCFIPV
Sequence of CYP2C9 present in the human liver microsomes (P11712 whole entry): as above
T1 sequence (P08684 whole entry): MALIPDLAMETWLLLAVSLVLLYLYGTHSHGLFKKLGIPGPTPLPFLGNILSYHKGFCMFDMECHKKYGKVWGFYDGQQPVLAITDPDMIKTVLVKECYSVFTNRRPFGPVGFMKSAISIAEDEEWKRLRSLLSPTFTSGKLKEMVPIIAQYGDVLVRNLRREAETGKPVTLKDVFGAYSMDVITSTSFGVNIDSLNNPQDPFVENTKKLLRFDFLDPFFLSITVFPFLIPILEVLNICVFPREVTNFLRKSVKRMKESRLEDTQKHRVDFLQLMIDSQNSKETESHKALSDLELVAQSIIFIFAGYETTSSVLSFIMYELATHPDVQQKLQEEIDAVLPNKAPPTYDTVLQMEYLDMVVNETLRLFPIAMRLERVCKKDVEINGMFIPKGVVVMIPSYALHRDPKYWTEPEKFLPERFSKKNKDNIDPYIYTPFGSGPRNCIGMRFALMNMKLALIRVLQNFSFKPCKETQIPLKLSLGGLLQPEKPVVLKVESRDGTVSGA
Sequence of UGT1A1 (P22309 26-533): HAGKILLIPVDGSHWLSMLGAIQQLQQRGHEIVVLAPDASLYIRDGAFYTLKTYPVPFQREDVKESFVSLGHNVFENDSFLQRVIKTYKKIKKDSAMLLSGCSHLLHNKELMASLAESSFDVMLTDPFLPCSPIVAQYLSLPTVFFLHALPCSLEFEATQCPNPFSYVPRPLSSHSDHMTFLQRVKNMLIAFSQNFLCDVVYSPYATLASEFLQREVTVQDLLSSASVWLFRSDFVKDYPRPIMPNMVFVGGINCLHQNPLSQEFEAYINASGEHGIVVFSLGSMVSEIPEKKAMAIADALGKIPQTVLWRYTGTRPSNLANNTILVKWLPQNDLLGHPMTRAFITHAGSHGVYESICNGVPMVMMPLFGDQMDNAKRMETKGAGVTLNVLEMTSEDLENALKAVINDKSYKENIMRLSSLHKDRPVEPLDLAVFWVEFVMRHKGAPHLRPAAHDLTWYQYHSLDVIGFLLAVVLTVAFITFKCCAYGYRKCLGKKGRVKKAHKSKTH

SMILES	IC50 (CYP3A4 [1]) [µM]	IC50 (CYP2C9*1 [2]) [µM]	IC50 (CYP2C9) [µM]	plasma protein binding affinity relative to warfarin (plasma proteins)	Ki (CYP2C9*1 [3]; [8]) [µM]	Ki [4, 8] [µM]	Mechanism of inhibition [4, 8]	IC50 (CYP1A2) [µM]	% R ([5]; patient F84) [%]	% S (proportion in (S)-enantiomeric form) ([5]; patient F84) [%]	% conjugated (proportion glucuronidated) ([5]; patient F84) [%]	urinary concentration ([5]; patient F84) [nM]	% R ([5]; patient F85) [%]	% S (proportion in (S)-enantiomeric form) ([5]; patient F85) [%]	urinary concentration ([5]; patient F85) [nM]	% R ([5]; patient F87) [%]	% S (proportion in (S)-enantiomeric form) ([5]; patient F87) [%]	urinary concentration ([5]; patient F87) [nM]	mean unbound concentration in human plasma (estimated) [6] [ng/mL]	further results
CC(=O)CC(c1ccc(O)cc1)c1c(O)c2ccccc2oc1=O (stereo not shown) [4′-OH-WAR, 4′-hydroxywarfarin]	39	8.4	9.3	affinity comparable to warfarin	17	17	Competitive	> 3000	64	56	47	140	25	75	94	30	70	20		Mechanism of inhibition (CYP2C9*1 [3]; [8]): Mixed; Ki (CYP2C9*1 [3]; 7-hydroxywarfarin formation as marker, mixed inhibition): 133 µM
CC(=O)CC(c1ccccc1)c1c(O)c2cc(O)ccc2oc1=O (stereo not shown) [6-OH-WAR, 6-hydroxywarfarin]	> 500	44.3	47	three- to four-fold lower affinity	> 170	167	Competitive	1400	65	35	35	560	69	31	1124	62	38	204		Mechanism of inhibition (CYP2C9*1 [3]; 7-hydroxywarfarin formation as marker, listed as 6-hydroxywarfarin): no inhibition was observed; Mechanism of inhibition (CYP2C9*1 [3]; 7-hydroxywarfarin formation as marker, listed as 6OHWAR): None; Ki, fold higher than the marker Km ([4]; human liver microsomes): approximately 32 fold; Km (UGT1A10): 399 ± 130 µM; Vmax (UGT1A10): 3.1 ± 0.4 nmol/mg protein/min; % conjugated (proportion glucuronidated) ([5]; patient F85): 15%; % conjugated (proportion glucuronidated) ([5]; patient F87): 12%
CC(=O)CC(c1ccccc1)c1c(O)c2ccc(O)cc2oc1=O (stereo not shown) [7-OH-WAR, 7-hydroxywarfarin]	> 500	45.7	35	three- to four-fold lower affinity				400	80	20	69	1964	38	62	2404	52	48	724	6.2	Ki (CYP2C9*1 [3]; [9]): 10 µM; Mechanism of inhibition (CYP2C9*1 [3]; [9]): Competitive; Ki, fold higher than the marker Km (CYP2C9*1 [3]; recombinant CYP2C9): 4.5 fold; Ki [4, 9]: 64 µM; Mechanism of inhibition [4, 9]: Competitive; Ki, fold higher than the marker Km ([4]; human liver microsomes): 8.5 fold; Km (UGT1A1): 58.8 ± 24 µM; Vmax (UGT1A1): 1.3 ± 0.1 nmol/mg protein/min; Km (UGT1A10): 220 ± 40 µM; Vmax (UGT1A10): 1.0 ± 0.1 nmol/mg protein/min; % conjugated (proportion glucuronidated) ([5]; patient F85): 28%; % conjugated (proportion glucuronidated) ([5]; patient F87): 14%
CC(=O)C(O)C(c1ccccc1)c1c(O)c2ccccc2oc1=O (stereo not shown) [10-OH-WAR, 10-hydroxywarfarin]		2	1.6		0.94	2.2	Competitive												5.8	Mechanism of inhibition (CYP2C9*1 [3]; [8]): Competitive; Ki, fold lower than the Km for S-warfarin (CYP2C9*1 [3]; recombinant CYP2C9): approximately 2.5 fold; Ki, fold lower than the microsomal Km for S-warfarin ([4]; human liver microsomes): 2.4 fold; detection in urine specimens ([5]; any of the three specimens): not detected
CC(=O)C[C@@H](c1ccccc1)c1c(O)c2ccc(O)cc2oc1=O [(S)-7-OH-WAR, (S) 7-hydroxywarfarin]																				share of (S)-WAR P450 metabolites measured [5]: 61-71%
CC(=O)C[C@@H](c1ccccc1)c1c(O)c2cccc(O)c2oc1=O [(S)-8-OH-WAR, (S) 8-hydroxywarfarin]																				share of (S)-WAR P450 metabolites measured [5]: 4-20%
CC(=O)C[C@@H](c1ccccc1)c1c(O)c2ccccc2oc1=O [S-warfarin, (S) warfarin, reference compound]																			2.7	Km (CYP3A4 [7]; 4′-hydroxywarfarin formation): 27 µM; Vmax (CYP3A4 [7]; 4′-hydroxywarfarin formation): 64 pmol product/min/nmol P450; Km (CYP3A4 [7]; 10-hydroxywarfarin formation): 26 µM; Vmax (CYP3A4 [7]; [10]): 76 pmol product/min/nmol P450; Km (CYP3A7; 4′-hydroxywarfarin formation): 2280 µM; Vmax (CYP3A7; 4′-hydroxywarfarin formation): 321 pmol product/min/nmol P450; Km (CYP3A7; 10-hydroxywarfarin formation): 81 µM; Vmax (CYP3A7; [10]): 22 pmol product/min/nmol P450
